Measurements from the supplement of paper PMC7017272.
± gives the standard deviation of the averaged measurements.

Columns and labels:
Conditions in all cases: treatment time: 3 days
[1] = system: UT-SCC-24A; experiment: drug sensitivity score (DSS); higher = more sensitive
Experimental: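 HNSCC cell lines (500 cells/well, 384-well) were cultured on plastic, on top of (2D) or embedded (3D) in Matrigel or human leiomyoma matrix Myogel (500 ug/mL; Myogel 3D mixed with rat collagen I). Cells were treated for 3 days with 5 ten-fold concentrations of each drug, and viability was read by CellTiter-Glo. Suffixes _1/_2/_3 on drug names are replicates.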

[2] = system: UT-SCC-40; experiment: relative IC50 (midpoint of the fitted curve; maximal inhibition may be below 50%); higher = less potent
How it was run: (§1)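 HPV-negative HNSCC cell lines were plated at 500 cells/well in 384-well plates, either on plastic, on wells coated with Matrigel or Myogel (500 µg/mL), or embedded in Matrigel or Myogel plus rat collagen I. Each compound was tested at five 10-fold concentrations over 3 days. Viability was measured by CellTiter-Glo 2.0 luminescence, and IC50, maximal inhibition and drug sensitivity score came from percent-inhibition dose–response curves fitted in the FIMM pipeline after normalisation to vehicle (0.1% DMSO) and cell-killing control wells.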

[3] = system: UT-SCC-24B; experiment: as above
How it was run: as §1

[4] = system: UT-SCC-44; experiment: as above
How it was run: as §1

[5] = system: UT-SCC-73; experiment: as above
How it was run: as §1

[6] = system: UT-SCC-106A; experiment: as above
How it was run: as §1

[7] = system: UT-SCC-8; experiment: as above
How it was run: as §1

[8] = system: UT-SCC-14; experiment: as above
How it was run: as §1

[9] = system: UT-SCC-42B; experiment: as above
How it was run: as §1

[10] = system: UT-SCC-42A; experiment: maximal % inhibition of viability relative to DMSO; higher = stronger effect
Experimental: (§2)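 HNSCC cell lines (500 cells/well, 384-well) were cultured on plastic, on top of (2D) or embedded (3D) in Matrigel or human leiomyoma matrix Myogel (500 ug/mL; Myogel 3D mixed with rat collagen I). Cells were treated for 3 days with 5 ten-fold concentrations of each drug, and viability was read by CellTiter-Glo. Viability was normalised to DMSO and benzethonium chloride controls and fitted with the FIMM DSRT pipeline to give IC50 (nM), maximal % inhibition and DSS. Suffixes _1/_2/_3 are replicates. Only inhibition-mode (IC50) fits are kept.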

[11] = system: UT-SCC-40; experiment: as above
Experimental: as §2

[12] = system: UT-SCC-24B; experiment: as above
Experimental: as §2

[13] = system: UT-SCC-28; experiment: as above
Experimental: as §2

[14] = system: UT-SCC-81; experiment: as above
Experimental: as §2

[15] = system: UT-SCC-44; experiment: as above
Experimental: as §2

[16] = system: UT-SCC-73; experiment: as above
Experimental: as §2

[17] = system: UT-SCC-106A; experiment: as above
Experimental: as §2

[18] = system: UT-SCC-8; experiment: as above
Experimental: as §2

[19] = system: UT-SCC-14; experiment: as above
Experimental: as §2

[20] = system: UT-SCC-42B; experiment: as above
Experimental: as §2

[21] = culture condition: embedded in Matrigel
[22] = culture condition: embedded in Myogel + collagen I
[23] = culture condition: on top of Matrigel
[24] = culture condition: on top of Myogel
[25] = culture condition: plastic 2D (no matrix)

- relative IC50 [2, 21]: 15.3 nM
- relative IC50 [2, 22]: 118 nM
- relative IC50 [2, 23]: 33.5 nM
- relative IC50 [2, 24]: 83.3 nM
- relative IC50 [2, 25]: 111 nM
- relative IC50 [3, 21]: 309 nM
- relative IC50 [3, 22]: 808 nM
- relative IC50 [3, 23]: 317 nM
- relative IC50 [3, 24]: 1430 nM
- relative IC50 [3, 25]: 184 nM
- relative IC50 [4, 21]: 56.2 nM
- relative IC50 [4, 22]: 417 nM
- relative IC50 [4, 23]: 58.4 nM
- relative IC50 [4, 24]: 569 nM
- relative IC50 [4, 25]: 61.7 nM
- relative IC50 [5, 21]: 38.5 nM
- relative IC50 [5, 23]: 31.8 nM
- relative IC50 [5, 24]: 132 nM
- relative IC50 [5, 25]: 64.4 nM
- relative IC50 [6, 21]: 15.2 nM
- relative IC50 [6, 23]: 15.5 nM
- relative IC50 [6, 24]: 498 nM
- relative IC50 [6, 25]: 25.7 nM
- relative IC50 [7, 21]: 259 nM
- relative IC50 [7, 22]: 1760 nM
- relative IC50 [7, 23]: 410 nM
- relative IC50 [7, 25]: 602 nM
- relative IC50 [8, 22]: 238 nM
- relative IC50 [8, 23]: 146 nM
- relative IC50 [8, 24]: 299 nM
- relative IC50 [9, 21]: 16.6 nM
- relative IC50 [9, 23]: 79.5 nM
- relative IC50 [9, 24]: 757 nM
- relative IC50 [9, 25]: 218 nM
SMILES: COc1cc(F)c(F)c(Nc2ccc(I)cc2F)c1NS(=O)(=O)C1(C[C@H](O)CO)CC1 [Refametinib]
- drug sensitivity score [1, 21]: 34.3 ± 1.1 DSS
- drug sensitivity score [1, 22]: 17.3 ± 2.2 DSS
- drug sensitivity score [1, 23]: 29.2 ± 1.3 DSS
- drug sensitivity score [1, 24]: 13 ± 1.6 DSS
- drug sensitivity score [1, 25]: 26.7 ± 0.62 DSS
- maximal % inhibition of viability [10, 21]: 61.2 ± 1.2%
- maximal % inhibition of viability [10, 22]: 42.4 ± 6.9%
- maximal % inhibition of viability [10, 23]: 61.9 ± 0.94%
- maximal % inhibition of viability [10, 24]: 48.8 ± 5.2%
- maximal % inhibition of viability [10, 25]: 58.8 ± 3.1%
- maximal % inhibition of viability [11, 21]: 80.9 ± 2.5%
- maximal % inhibition of viability [11, 22]: 76 ± 7.2%
- maximal % inhibition of viability [11, 23]: 75.9 ± 1.6%
- maximal % inhibition of viability [11, 24]: 61.23 ± 0.5%
- maximal % inhibition of viability [11, 25]: 63.2 ± 2.9%
- maximal % inhibition of viability [12, 21]: 72.4 ± 3.9%
- maximal % inhibition of viability [12, 22]: 86.3 ± 3.8%
- maximal % inhibition of viability [12, 23]: 72.9 ± 4.8%
- maximal % inhibition of viability [12, 24]: 72.2 ± 2.3%
- maximal % inhibition of viability [12, 25]: 84 ± 2.2%
- maximal % inhibition of viability [13, 21]: 49.8 ± 4%
- maximal % inhibition of viability [13, 22]: 33 ± 8.1%
- maximal % inhibition of viability [13, 23]: 45.1 ± 8.6%
- maximal % inhibition of viability [13, 25]: 23.7 ± 2%
- maximal % inhibition of viability [14, 21]: 87.7 ± 0.46%
- maximal % inhibition of viability [14, 22]: 50.7 ± 1.9%
- maximal % inhibition of viability [14, 23]: 82.7 ± 0.99%
- maximal % inhibition of viability [14, 24]: 52 ± 3.4%
- maximal % inhibition of viability [14, 25]: 73.1 ± 2.5%
- maximal % inhibition of viability [15, 21]: 90.4 ± 2.6%
- maximal % inhibition of viability [15, 22]: 55.1 ± 5%
- maximal % inhibition of viability [15, 23]: 73.2 ± 7%
- maximal % inhibition of viability [15, 24]: 56.9 ± 0.9%
- maximal % inhibition of viability [15, 25]: 62.2 ± 4.4%
- maximal % inhibition of viability [16, 21]: 85.7 ± 3.9%
- maximal % inhibition of viability [16, 22]: 73.4 ± 14%
- maximal % inhibition of viability [16, 23]: 81.8 ± 1.5%
- maximal % inhibition of viability [16, 24]: 72 ± 2.7%
- maximal % inhibition of viability [16, 25]: 75.8 ± 3.1%
- maximal % inhibition of viability [17, 21]: 53.7 ± 4.7%
- maximal % inhibition of viability [17, 22]: 36.7 ± 3.4%
- maximal % inhibition of viability [17, 23]: 66 ± 2.5%
- maximal % inhibition of viability [17, 24]: 43.4 ± 3.1%
- maximal % inhibition of viability [17, 25]: 67.33 ± 0.64%
- maximal % inhibition of viability [18, 21]: 88.8 ± 1.6%
- maximal % inhibition of viability [18, 22]: 74.1 ± 13%
- maximal % inhibition of viability [18, 23]: 81.7 ± 2.5%
- maximal % inhibition of viability [18, 24]: 73 ± 5.1%
- maximal % inhibition of viability [18, 25]: 80.2 ± 3.9%
- maximal % inhibition of viability [19, 21]: 62.5 ± 5.1%
- maximal % inhibition of viability [19, 22]: 57 ± 5.9%
- maximal % inhibition of viability [19, 23]: 52.9 ± 9.5%
- maximal % inhibition of viability [19, 24]: 52.2 ± 5.8%
- maximal % inhibition of viability [19, 25]: 47.7 ± 7.5%
- maximal % inhibition of viability [20, 21]: 79.1 ± 7.6%
- maximal % inhibition of viability [20, 23]: 64.1 ± 4.8%
- maximal % inhibition of viability [20, 24]: 46.5 ± 1.5%
- maximal % inhibition of viability [20, 25]: 47.5 ± 2.6%
